Several values for one entry are separate records, joined by “and”; a condition that tells them apart may be missing. Equal entries are not always repeated.
Columns and labels:
Assay type in all cases: physicochemical
[1] = Particle size distribution by laser diffraction (Malvern Mastersizer 2000), oxycodone base
[2] = Particle size by optical microscopy, number % undersize; settings: mean diameter
Procedure: (§1) As a secondary analytical method, the micronized and the non-micronized oxycodone analyzed by laser diffraction with results shown in Table 1, were analyzed by optical microscopy to evaluate particle size and the results are shown in Table 2. Sample aliquots (˜50 mg for micronized and ˜225 mg for non-micronized) were dispersed in 10 ml of sunflower oil and viewed on a Nikon microscope equipped with a 10× objective. Particle size (mean diameter) was determined using Image Pro® Plus software and expressed as a number % undersize. The particle size values determined by optical microscopy as shown in Table 2 are consistent with the laser diffraction particle size data shown in Table 1.

[3] = Chemical stability on storage: assay and impurities
Procedure: (§2) Samples of Example 2 and additional samples comprising micronized and non-micronized oxycodone useful for exemplary dosage forms are tested for their chemical stability and physical stability. Based on a comparison of stability data from micronized and non-micronized samples stored at both 25° C./60% RH and 40 C.°/75% RH, no differences are observed in the impurity profile through three months of study as shown in Tables 4 and 5 for exemplary lots. The impurities analyzed include (HOXY), 14-Hydroxycodeinone; (DHOXYN), 7,8-Dihydro-8,14-Dihydroxycodeinone; (DHOXY), 7,8-Dihydro-14-hydroxycodeine; (OXYE), Oxycodone ethylenolate; (OXYN), 1-Hydroxyoxycodone and Oxycodone N-oxide. Most of the impurities are found to be below the limit of quantitation (LOQ), except for HOXY and DHOXYN which were unchanged at 0.1%. […] The solid state stability of the micronized oxycodone is monitored for particle size, XRPD, DSC, and microscopy as shown in Table 6.

[4] = Physical stability on storage: particle size (Dv90) by laser diffraction
[5] = Physical stability on storage: DSC onset melt
Procedure: The micronized lots may also be analyzed by Differential Scanning Calorimetry (DSC). DSC is performed on a TA instrument Q100 using a heating ramp from 25-235° C. at a rate of 5° C./min. […] The sharp endotherm observed is consistent with a crystalline material and the absence of other thermal events proves that there were no polymorph transformations during melting.
as §2

[6] = Physical stability on storage: microscopy
Procedure: as §1, §2

[7] = Table 1 analysis, lot 2 in duplicate
[8] = additional laser diffraction analysis, Table 3

## COc1ccc2c3c1O[C@H]1C(=O)CC[C@@]4(O)[C@@H](C2)N(C)CC[C@]314 [Lot 1, oxycodone]
[1]; [7]
  Particle size (Dv10): 0.5 μ
  Particle size (Dv50): 1.4 μ
  Particle size (Dv90): 3.0 μ
[1]; [8]
  Particle size (Dv10): 0.7 μ
  Particle size (Dv50): 2.1 μ
  Particle size (Dv90): 5.1 μ
[2]
  % ≦ 1μ: 30.5%
  % ≦ 5μ: 92.7%
  % ≦ 10μ: 99.5%
[3]; 5° C./60% RH, 1 mo (Table 4)
  1-HydroxyOXY: <LOQ
[3]; 5° C./60% RH, 3 mo (Table 4)
  1-HydroxyOXY: <LOQ
[3]; 25° C./60% RH, 1 mo
  Assay: 98.9%
  DHOXY (7,8-Dihydro-14-hydroxycodeine): <LOQ
  DHOXYN (7,8-Dihydro-8,14-Dihydroxycodeinone): 0.10%
  HOXY (14-Hydroxycodeinone): 0.08%
  OXYE (Oxycodone ethylenolate): <LOQ
  OXYN: <LOQ
  Other (impurities; Table 5: >0.05%): <LOQ
  Total impurities: 0.18%
[3]; 25° C./60% RH, 3 mo
  Assay: 99.9%
  DHOXY (7,8-Dihydro-14-hydroxycodeine): <LOQ
  DHOXYN (7,8-Dihydro-8,14-Dihydroxycodeinone): 0.10%
  HOXY (14-Hydroxycodeinone): 0.08%
  OXYE (Oxycodone ethylenolate): <LOQ
  OXYN: <LOQ
  Other (impurities; Table 5: >0.05%): <LOQ
  Total impurities: 0.18%
[3]; 40° C./75% RH, 1 mo
  1-HydroxyOXY: <LOQ
  Assay: 100.0%
  DHOXY (7,8-Dihydro-14-hydroxycodeine): <LOQ
  DHOXYN (7,8-Dihydro-8,14-Dihydroxycodeinone): 0.10%
  HOXY (14-Hydroxycodeinone): 0.08%
  OXYE (Oxycodone ethylenolate): <LOQ
  OXYN: <LOQ
  Other (impurities; Table 5: >0.05%): <LOQ
  Total impurities: 0.18%
[3]; 40° C./75% RH, 3 mo
  1-HydroxyOXY: <LOQ
  Assay: 99.5%
  DHOXY (7,8-Dihydro-14-hydroxycodeine): <LOQ
  DHOXYN (7,8-Dihydro-8,14-Dihydroxycodeinone): 0.10%
  HOXY (14-Hydroxycodeinone): 0.08%
  OXYE (Oxycodone ethylenolate): <LOQ
  OXYN: <LOQ
  Other (impurities; Table 5: >0.05%): <LOQ
  Total impurities: 0.18%
[3]; Time 0
  1-HydroxyOXY: <LOQ
  Assay: 99.3%
  DHOXY (7,8-Dihydro-14-hydroxycodeine): <LOQ
  DHOXYN (7,8-Dihydro-8,14-Dihydroxycodeinone): 0.10%
  HOXY (14-Hydroxycodeinone): 0.08%
  OXYE (Oxycodone ethylenolate): <LOQ
  OXYN: <LOQ
  Other (impurities; Table 5: >0.05%): <LOQ
  Total impurities: 0.18%
[4]; 25° C./60% RH, 3 months
  Particle size (Dv90): 6 μ
[4]; 40° C./75% RH, 3 months
  Particle size (Dv90): 11 μ
[4]; Time 0
  Particle size (Dv90): 4 μ
[5]; 25° C./60% RH, 3 mo
  DSC Onset Melt: 221.8 °C
[5]; 40° C./75% RH, 3 mo
  DSC Onset Melt: 221.9 °C
[5]; Time 0
  DSC Onset Melt: 222.0 °C
[6]; 25° C./60% RH, 3 mo
  Microscopy, ≦10 μ: 98.4%
[6]; 40° C./75% RH, 3 mo
  Microscopy, ≦10 μ: 98.2%
[6]; Time 0
  Microscopy, ≦10 μ: 99.5%

## COc1ccc2c3c1O[C@H]1C(=O)CC[C@@]4(O)[C@@H](C2)N(C)CC[C@]314 [Lot 2, oxycodone]
[1]; [7]
  Particle size (Dv10): 0.5, 0.5 μ
  Particle size (Dv50): 1.5 μ and 2.2 μ
  Particle size (Dv90): 3.1 μ and 5.1 μ
[1]; [8]
  Particle size (Dv10): 0.6 μ
  Particle size (Dv50): 2.1 μ
  Particle size (Dv90): 5.8 μ
[2]
  % ≦ 1μ: 25.3%
  % ≦ 5μ: 92.2%
  % ≦ 10μ: 99.5%
[3]; 5° C./60% RH, 1 mo (Table 4)
  1-HydroxyOXY: <LOQ
[3]; 5° C./60% RH, 3 mo (Table 4)
  1-HydroxyOXY: <LOQ
[3]; 25° C./60% RH, 1 mo
  Assay: 99.8%
  DHOXY (7,8-Dihydro-14-hydroxycodeine): <LOQ
  DHOXYN (7,8-Dihydro-8,14-Dihydroxycodeinone): 0.10%
  HOXY (14-Hydroxycodeinone): 0.08%
  OXYE (Oxycodone ethylenolate): <LOQ
  OXYN: <LOQ
  Other (impurities; Table 5: >0.05%): <LOQ
  Total impurities: 0.18%
[3]; 25° C./60% RH, 3 mo
  Assay: 99.8%
  DHOXY (7,8-Dihydro-14-hydroxycodeine): <LOQ
  DHOXYN (7,8-Dihydro-8,14-Dihydroxycodeinone): 0.10%
  HOXY (14-Hydroxycodeinone): 0.08%
  OXYE (Oxycodone ethylenolate): <LOQ
  OXYN: <LOQ
  Other (impurities; Table 5: >0.05%): <LOQ
  Total impurities: 0.18%
[3]; 40° C./75% RH, 1 mo
  1-HydroxyOXY: <LOQ
  Assay: 99.6%
  DHOXY (7,8-Dihydro-14-hydroxycodeine): <LOQ
  DHOXYN (7,8-Dihydro-8,14-Dihydroxycodeinone): 0.10%
  HOXY (14-Hydroxycodeinone): 0.08%
  OXYE (Oxycodone ethylenolate): <LOQ
  OXYN: <LOQ
  Other (impurities; Table 5: >0.05%): <LOQ
  Total impurities: 0.18%
[3]; 40° C./75% RH, 3 mo
  1-HydroxyOXY: <LOQ
  Assay: 99.2%
  DHOXY (7,8-Dihydro-14-hydroxycodeine): <LOQ
  DHOXYN (7,8-Dihydro-8,14-Dihydroxycodeinone): 0.10%
  HOXY (14-Hydroxycodeinone): 0.08%
  OXYE (Oxycodone ethylenolate): <LOQ
  OXYN: <LOQ
  Other (impurities; Table 5: >0.05%): <LOQ
  Total impurities: 0.18%
[3]; Time 0
  1-HydroxyOXY: <LOQ
  Assay: 100.7%
  DHOXY (7,8-Dihydro-14-hydroxycodeine): <LOQ
  DHOXYN (7,8-Dihydro-8,14-Dihydroxycodeinone): 0.10%
  HOXY (14-Hydroxycodeinone): 0.08%
  OXYE (Oxycodone ethylenolate): <LOQ
  OXYN: <LOQ
  Other (impurities; Table 5: >0.05%): <LOQ
  Total impurities: 0.18%
[4]; 25° C./60% RH, 3 months
  Particle size (Dv90): 10 μ
[4]; 40° C./75% RH, 3 months
  Particle size (Dv90): 10 μ
[4]; Time 0
  Particle size (Dv90): 4 μ
[5]; 25° C./60% RH, 3 mo
  DSC Onset Melt: 221.8 °C
[5]; 40° C./75% RH, 3 mo
  DSC Onset Melt: 221.9 °C
[5]; Time 0
  DSC Onset Melt: 221.8 °C
[6]; 25° C./60% RH, 3 mo
  Microscopy, ≦10 μ: 99.5%
[6]; 40° C./75% RH, 3 mo
  Microscopy, ≦10 μ: 98.3%
[6]; Time 0
  Microscopy, ≦10 μ: 99.5%
